Experimental data taken from ChEMBL document CHEMBL3714764, “Diaminopyrimidine p2x3 and p2x2/3 receptor modulators for treatment of acute, sub-acute or chronic cough” (2015).
The source made the active and inactive calls. The calls are words filed in the database; no cut-off is given here.

Experiments:
[1] = biological target: T1, P2X purinoceptor 3 (Rattus norvegicus) (UniProt P49654); assay: (§1) Antagonist activity against rat P2X3 receptor expressed in CHO-K1 cells assessed as effect on calcium level incubated for 20 mins by Fluo-3AM dye based FLIPR assay; assay type: functional, cell-based
T1 sequence (whole entry): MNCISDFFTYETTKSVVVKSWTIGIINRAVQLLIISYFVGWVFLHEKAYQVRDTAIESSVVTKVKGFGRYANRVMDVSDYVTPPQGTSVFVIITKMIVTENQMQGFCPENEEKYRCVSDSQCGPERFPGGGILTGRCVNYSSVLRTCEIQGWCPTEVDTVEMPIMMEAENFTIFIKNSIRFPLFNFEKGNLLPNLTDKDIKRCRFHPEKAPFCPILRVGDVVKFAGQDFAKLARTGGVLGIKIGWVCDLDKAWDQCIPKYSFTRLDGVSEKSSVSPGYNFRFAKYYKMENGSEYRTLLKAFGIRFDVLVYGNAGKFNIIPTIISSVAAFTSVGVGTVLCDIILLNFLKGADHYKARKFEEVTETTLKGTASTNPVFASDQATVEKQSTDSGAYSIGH

[2] = organism: Homo sapiens; assay: Anti-tussive activity in idiopathic/treatment-resistant chronic cough patient assessed as reduction in daytime cough per hour at 600 mg BID measured after 2 weeks during double-blind randomized placebo-controlled crossover trial; assay type: functional
[3] = organism: Homo sapiens; assay: Anti-tussive activity in idiopathic/treatment-resistant chronic cough patient assessed as global ratings of change and cough quality of life questionnaire at 600 mg BID measured after 2 weeks during double-blind randomized placebo-controlled crossover trial; assay type: functional
[4] = organism: Homo sapiens; assay: Anti-tussive activity in idiopathic/treatment-resistant chronic cough patient assessed as cough severity visual analogue scales at 600 mg BID measured after 2 weeks during double-blind randomized placebo-controlled crossover trial; assay type: functional
[5] = organism: Homo sapiens; assay: Anti-tussive activity in patient with refractory chronic cough assessed as reduction in objective daytime cough counts at 600 mg BID measured after 2 weeks during double-blind randomized placebo-controlled crossover trial; assay type: functional
[6] = organism: Homo sapiens; assay: Anti-tussive activity in idiopathic/treatment-resistant chronic cough patient assessed as urge to cough analogue scales at 600 mg BID measured after 2 weeks during double-blind randomized placebo-controlled crossover trial; assay type: functional
[7] = biological target: T2, P2X purinoceptor 3 (Rattus norvegicus, UniProt P49654); assay: as §1; assay type: functional, cell-based
T2 sequence (P49654 whole entry): T1 sequence (whole entry)

CNS(=O)(=O)c1cc(Oc2cnc(N)nc2N)c(C(C)C)cc1OC
inhibition [1]: Active

COc1cc(C(C)C)c(Oc2cnc(N)nc2N)cc1C(C)=O
inhibition [1]: Active

COc1cc(C(C)C)c(Oc2cnc(N)nc2N)cc1[N+](=O)[O-]
inhibition [1]: Active

CC(C)c1cc(O)c(I)cc1Cc1cnc(N)nc1N
inhibition [1]: Active

COc1cc(C(C)C)c(Oc2cnc(N)nc2N)cc1OC(F)(F)F
inhibition [1]: Active

CCNS(=O)(=O)c1cc(Oc2cnc(N)nc2N)c(C(C)C)cc1OC
inhibition [1]: Active

CCOc1cc(C(C)C)c(Oc2cnc(N)nc2N)cc1I
inhibition [1]: Active

COc1cc(C(C)C)c(Oc2cnc(N)nc2N)cc1S(N)(=O)=O [GEFAPIXANT]
inhibition [1]: Active
inhibition (INH) [2]: 75%
Activity_index [3]: -9
Activity [4]: -26 mm
inhibition (INH) [5]: 75%
Activity [6]: -21 mm

COc1cc(C(C)C)c(Oc2cnc(N)nc2N)cc1Br
inhibition [1]: Active

COc1cc(C(C)C)c(Oc2cnc(N)nc2N)cc1C(C)OC (configuration not stated)
inhibition [1]: Active

COc1cc(C(C)C)c(Oc2cnc(N)nc2N)cc1C(=O)O
inhibition [1]: Active

COc1cc(Oc2cnc(N)nc2N)c(C(C)C)cc1OC
inhibition [1]: Active

CC(C)c1cc(OC(F)F)c(Cl)cc1Oc1cnc(N)nc1N
inhibition [1]: Active

COc1cc(C(C)C)c(Oc2cnc(N)nc2N)cc1I
inhibition [1]: Active

COc1cc(C(C)C)c(Oc2cnc(N)nc2N)cc1C(C)O (configuration not stated)
inhibition [1]: Active

COc1cc(C(C)C)c(Oc2cnc(N)nc2N)cc1NC(=O)Nc1ccccc1
inhibition [1]: Active

CCNC(=O)Nc1cc(Oc2cnc(N)nc2N)c(C(C)C)cc1OC
inhibition [1]: Active

COc1cc(C(C)C)c(Oc2cnc(N)nc2N)cc1F
inhibition [1]: Active

COc1cc(C(C)C)c(Oc2cnc(N)nc2N)cc1C(C)C
inhibition [1]: Active

COc1cc(C(C)C)c(Oc2cnc(N)nc2N)cc1C(=O)N(C)C
inhibition [1]: Active

COc1cc(C(C)C)c(Oc2cnc(N)nc2N)cc1C#N
inhibition [1]: Active

CCS(=O)(=O)c1cc(Oc2cnc(N)nc2N)c(C(C)C)cc1OC
inhibition [1]: Active

COc1cc(C(C)C)c(Oc2cnc(N)nc2N)cc1C(N)=O
inhibition [1]: Active

CC(C)c1cc(O)c(I)cc1Oc1cnc(N)nc1N
IC50 [7]: 5.01 nM

CC(C)c1cc(OCC(F)(F)F)c(I)cc1Oc1cnc(N)nc1N
inhibition [1]: Active

COc1cc(C(C)C)c(Oc2cnc(N)nc2N)cc1N
inhibition [1]: Active

C=Cc1cc(Oc2cnc(N)nc2N)c(C(C)C)cc1OC
inhibition [1]: Active

CC(=O)c1cc(Oc2cnc(N)nc2N)c(C(C)C)cc1O
inhibition [1]: Active

CNC(=O)c1cc(Oc2cnc(N)nc2N)c(C(C)C)cc1OC
inhibition [1]: Active

COc1cc(C(C)C)c(Oc2cnc(N)nc2N)cc1NC(C)=O
inhibition [1]: Active

COc1cc(C(C)C)c(Oc2cnc(N)nc2N)cc1Cl
inhibition [1]: Active

COc1cc(C(C)C)c(Oc2cnc(N)nc2N)cc1S(C)(=O)=O
inhibition [1]: Active

COc1cc(C(C)C)c(Oc2cnc(N)nc2N)cc1C(F)(F)F
inhibition [1]: Active

C#CCOc1cc(C(C)C)c(Oc2cnc(N)nc2N)cc1I
inhibition [1]: Active

COc1cc(C(C)C)c(Oc2cnc(N)nc2N)cc1NC(N)=O
inhibition [1]: Active

COc1cc(C(C)C)c(Oc2cnc(N)nc2N)cc1C(C)(C)O
inhibition [1]: Active

COc1cc(C(C)C)c(Oc2cnc(N)nc2N)cc1C
inhibition [1]: Active
